Measured values published in ChEMBL document CHEMBL5143653, “4'-Nitrobiphenyl thioglucoside as the Smallest, fluorescent photosensitizer with cancer targeting ligand” (Bioorg Med Chem, 2022).

Assays:
PC-3 [1] = assay: Dark toxicity in human PC-3 cells assessed as reduction in cell viability at 300 uM incubated under dark for 2 hrs by MTT assay; assay type: cell-based; details: pc-3, 2 h
[2] = Photodynamic cytotoxicity in human PC-3 cells assessed as reduction in cell viability under 405 nm irradiation exposure measured after 2 hrs by MTT assay; assay type: toxicity, cell-based
[3] = Drug uptake in human PC-3 cells at 150 uM incubated under irradiation at 405 nm in presence of cytochalasin B by confocal laser scan fluorescence microscopy; assay type: ADME, cell-based; details: pc-3, 150 µM
[4] = Drug uptake in human PC-3 cells at 150 uM incubated under irradiation at 405 nm by confocal laser scan fluorescence microscopy; assay type: ADME, cell-based; details: pc-3, 150 µM
[5] = Drug uptake in human PC-3 cells at 150 uM incubated under irradiation at 405 nm in presence of up top 25 mM glucose by confocal laser scan fluorescence microscopy; assay type: ADME, cell-based; details: pc-3, 150 µM
PC-3 [6] = assay: Dark toxicity in human PC-3 cells assessed as reduction in cell viability at 150 uM incubated under dark for 2 hrs by MTT assay; assay type: cell-based; details: pc-3, 2 h

Row | Drug uptake [3] | Drug uptake [4] | Drug uptake [5] | Compound | Activity (PC-3 [1]) | IC50 at 2 h [2] [µM] | Activity (PC-3 [6])
1 | Active | Active | Active | O=[N+]([O-])c1ccc(-c2ccc(S[C@@H]3O[C@H](CO)[C@H](O)[C@H](O)[C@H]3O)cc2)cc1 | Toxic | 120 | –
2 | – | – | – | O=[N+]([O-])c1ccc(-c2ccc(OCCCO[C@@H]3O[C@H](CO)[C@@H](O)[C@H](O)[C@H]3O)cc2)cc1 | – | – | Toxic
3 | – | – | – | O=[N+]([O-])c1ccc(-c2ccc(OCCCS[C@@H]3O[C@H](CO)[C@@H](O)[C@H](O)[C@H]3O)cc2)cc1 | – | – | Toxic
4 | – | Active | – | O=[N+]([O-])c1ccc(-c2ccc(S[C@H]3O[C@H](CO)[C@@H](O)[C@H](O)[C@@H]3O)cc2)cc1 | Toxic | 150 | –
5 | – | – | – | O=[N+]([O-])c1ccc(-c2ccc(O[C@@H]3O[C@H](CO)[C@@H](O)[C@H](O)[C@H]3O)cc2)cc1 | – | – | Non-Toxic
6 | – | Active | – | O=[N+]([O-])c1ccc(-c2ccc(S[C@@H]3O[C@H](CO)[C@@H](O)[C@H](O)[C@H]3O)cc2)cc1 | Non-Toxic | 250 | Non-Toxic
7 | – | – | – | O=[N+]([O-])c1ccc(-c2ccc(SCCCO[C@@H]3O[C@H](CO)[C@@H](O)[C@H](O)[C@H]3O)cc2)cc1 | – | – | Toxic
